≈ marks a conversion by molar mass, not a printed value.

Experimental findings from PMC11172257 (Emerging Microbes & Infections, 2024) are described below.

The test system of this assay is K. pneumonia HSD. Nature of the assay: microbe, parasite or virus in culture. Further details: species or system bacterial strains. The settings on record: for MIC: Klebsiella pneumoniae, read-out: MIC (μg/mL)^a / K. pneumonia HSD.

Consider `NCC[C@H](O)C(=O)N[C@@H]1C[C@H](N)[C@@H](O[C@H]2O[C@H](CN)[C@@H](O)[C@H](O)[C@H]2O)[C@H](O)[C@H]1O[C@H]1O[C@H](CO)[C@@H](O)[C@H](N)[C@H]1O` [Amikacin], for which the MIC was greater than 128 µg/mL.
Same read-out and setting: with `CC1(C)S[C@@H]2[C@H](NC(=O)[C@H](N)c3ccc(O)cc3)C(=O)N2[C@H]1C(=O)O` [Amoxicillin] the figure was greater than 32 µg/mL.
Consider `CO/N=C(\C(=O)N[C@@H]1C(=O)N2C(C(=O)[O-])=C(C[N+]3(C)CCCC3)CS[C@H]12)c1csc(N)n1` [Cefepime], for which the “MIC (μg/mL)^a / K. pneumonia HSD” value came out at 128 µg/mL (≈ 266 µM).
As for `C[C@@H](O)[C@H]1C(=O)N2C(C(=O)O)=C(S[C@@H]3CN[C@H](C(=O)Nc4cccc(C(=O)O)c4)C3)[C@H](C)[C@H]12` [Ertapenem], the MIC amounted to 32 µg/mL (≈ 67.3 µM).
The same measure, in the same setting: with `C[C@@H](O)[C@H]1C(=O)N2C(C(=O)O)=C(S[C@@H]3CN[C@H](C(=O)N(C)C)C3)[C@H](C)[C@H]12` [Meropenem] the figure was 4 µg/mL (≈ 10.4 µM); with `CC(C)(O/N=C(\C(=O)N[C@@H]1C(=O)N2C(C(=O)[O-])=C(C[n+]3ccccc3)CS[C@H]12)c1csc(N)n1)C(=O)O` [ceftazidime], greater than 128 µg/mL.
